Assay results: ChEMBL document CHEMBL1201862, “PubChem BioAssay data set” (2004)
Active and inactive are the calls of the source.

Legend:
[1] = viability loss of HPDE-C7K cells – cell-based, fluorescence, HTS, primary screen (AID 431); format: functional; conditions: Homo sapiens
[2] = viability of HCT116 lacking mutant beta-catenin – cell-based, human colon tumor, dose response (AID 1045); format: functional;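 further: HCT116 colon tumor cells with beta catenin knocked out; cells exposed to compound for 60 hours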
[3] = Luminescence Cell-Based Dose Retest to Confirm Inhibitors of Cancer Stem Cells. [Related pubchem assays (depositor defined):AID2717, AID2721]; format: functional; conditions: Homo sapiens
[4] = molecular target: T1, Ubiquitin-conjugating enzyme E2 N (Homo sapiens, UniProt P61088); format: functional
T1 sequence (P61088 whole entry): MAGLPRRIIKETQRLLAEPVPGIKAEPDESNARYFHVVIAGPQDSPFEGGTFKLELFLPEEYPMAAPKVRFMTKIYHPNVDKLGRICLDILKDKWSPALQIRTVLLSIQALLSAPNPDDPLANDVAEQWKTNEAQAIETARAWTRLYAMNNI

[5] = molecular target: T1, Ubiquitin-conjugating enzyme E2 N; format: functional; remark: listed apart in the source
[6] = molecular target: T2, DNA repair protein RAD52 homolog (Homo sapiens, UniProt P43351); format: functional, biochemical
T2 sequence (P43351 whole entry): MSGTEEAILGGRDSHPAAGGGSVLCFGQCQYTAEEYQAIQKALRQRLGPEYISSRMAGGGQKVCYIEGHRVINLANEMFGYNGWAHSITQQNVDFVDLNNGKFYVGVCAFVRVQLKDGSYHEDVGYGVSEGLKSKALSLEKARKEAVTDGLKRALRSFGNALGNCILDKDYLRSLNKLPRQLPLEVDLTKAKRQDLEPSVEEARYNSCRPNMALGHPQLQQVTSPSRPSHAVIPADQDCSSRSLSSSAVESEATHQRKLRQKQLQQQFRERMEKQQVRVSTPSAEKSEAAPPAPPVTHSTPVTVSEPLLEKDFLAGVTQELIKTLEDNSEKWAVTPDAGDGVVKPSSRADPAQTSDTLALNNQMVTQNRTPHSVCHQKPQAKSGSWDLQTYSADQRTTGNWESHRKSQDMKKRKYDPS

[7] = molecular target: T3, Bcl-2-related protein A1 (Mus musculus, UniProt Q07440); format: functional;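 further: confirmatory dose–response counterscreen on Bfl-1, used to check hits from a UBC13 polyubiquitin inhibitor campaign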
T3 sequence (Q07440 whole entry): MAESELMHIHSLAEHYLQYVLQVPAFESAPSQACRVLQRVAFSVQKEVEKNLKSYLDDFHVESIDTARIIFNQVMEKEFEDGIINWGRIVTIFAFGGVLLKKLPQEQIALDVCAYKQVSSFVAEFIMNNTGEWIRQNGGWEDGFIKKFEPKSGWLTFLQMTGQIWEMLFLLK

[8] = viability of PTEN-deleted HCT116 cells – cell-based, HCT116 PTEN knockout, dose response (AID 1047); format: functional;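 further: HCT116 colon tumor cells with PTEN knocked out; cells exposed to compound for 60 hours before readout; potency for loss of cell viability measured by luminescence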
[9] = HPDE-C7 pancreatic duct cell viability loss – fluorescence, HTS (AID 430); format: functional, cell-based; conditions: Homo sapiens
[10] = molecular target: Mucolipin-3 (Homo sapiens, UniProt Q8TDD5); test: Dose response cell-based high-throughput screening assay for agonists of the transient receptor potential channel ML3 (TRPML3). [Related pubchem assays: 1526, 1424, 1448 ]; format: functional
[11] = molecular target: Ion channel NompC (Danio rerio, UniProt Q7T1G6); test: Fluorescence counterscreen assay for TRPML3 agonists: dose response cell-based high-throughput screening assay to identify agonists of the transient receptor potential channel N1 (TRPN1). [Related pubchem assays: 1526, 1424, 1448 ]; format: functional
[12] = A Cell Based Secondary Assay To Explore Cytotoxicity of Compounds that Sensitize Mycobacterium Tuberculosis to Beta-Lactam Antibiotics.; format: functional
[13] = molecular target: T4, NADPH oxidase 1 (Homo sapiens, UniProt Q9Y5S8); format: functional, cell-based;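 further: Cell-based assay with luminescence read-out, IC50 derived from inhibitor dose-response curves; intracellular ROS from endogenous NOX1 in intact HT29 colon cancer cells; potency of inhibitors that lower the ROS luminescence signal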
T4 sequence (Q9Y5S8 whole entry): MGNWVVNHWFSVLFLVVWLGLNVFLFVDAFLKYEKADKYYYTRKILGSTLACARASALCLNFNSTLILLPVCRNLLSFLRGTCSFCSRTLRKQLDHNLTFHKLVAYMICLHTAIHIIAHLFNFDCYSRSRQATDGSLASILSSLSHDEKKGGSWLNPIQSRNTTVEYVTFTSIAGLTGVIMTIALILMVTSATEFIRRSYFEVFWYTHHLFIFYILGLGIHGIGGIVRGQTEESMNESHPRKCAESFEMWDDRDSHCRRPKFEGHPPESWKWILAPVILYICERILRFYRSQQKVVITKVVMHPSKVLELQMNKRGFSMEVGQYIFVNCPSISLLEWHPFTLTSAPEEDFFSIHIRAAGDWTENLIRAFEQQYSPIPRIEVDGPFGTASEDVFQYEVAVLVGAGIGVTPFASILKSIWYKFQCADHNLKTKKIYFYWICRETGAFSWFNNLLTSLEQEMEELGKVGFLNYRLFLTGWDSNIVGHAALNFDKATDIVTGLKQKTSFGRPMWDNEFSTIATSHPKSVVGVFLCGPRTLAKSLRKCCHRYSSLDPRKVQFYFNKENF

[14] = Trypanosoma cruzi growth suppression in host cells – NIH3T3 host cells, beta-gal luminescence, confirmation (AID 2044); format: functional, cell-based;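 further: intracellular parasites grown in NIH/3T3 mouse fibroblasts as host cells; luminescent beta-galactosidase reporter signal from transgenic T. cruzi replicating inside host cells; inhibitors lower the luminescence signal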
[15] = NIH3T3 cell viability loss – ATP luminescence, mouse fibroblasts, counter-screen, dose response (AID 2010); format: functional, cell-based;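 further: cells exposed to compound for about 90 hours before reading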
[16] = cells
[17] = molecular target: Lytic switch protein BZLF1 (Epstein-Barr virus (strain B95-8) (HHV-4) (Human herpesvirus 4), UniProt P03206); test: inhibition of BZLF1 ZTA DNA binding – biochemical, fluorescence polarization, Epstein-Barr virus, 1536-well, counter-screen for EBNA-1 inhibitor project, dose response (AID 2377); parameters: species or system human gammaherpesvirus 4;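 further: fluorescence polarization of Cy5-labelled ZRE DNA probe bound by purified Zta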
[18] = molecular target: Epstein-Barr nuclear antigen 1 (Epstein-Barr virus (strain B95-8) (HHV-4) (Human herpesvirus 4), UniProt P03211); test: inhibition of EBV nuclear antigen 1 DNA binding – biochemical, fluorescence polarization, 1536-well, dose response (AID 2381); parameters: species or system human gammaherpesvirus 4;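 further: fluorescence polarization of a Cy5 DNA probe bound by EBNA-1 protein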
[19] = molecular target: Long-chain-fatty-acid--AMP ligase FadD28 (Mycobacterium tuberculosis, UniProt P9WQ59); test: Fluorescence polarization aasay to screen for inhibitors that compete for the binding of FadD28 to a bisubstrate Measured in Biochemical System Using Plate Reader - 2147-01_Inhibitor_Dose_CherryPick_Activity.; format: functional, Mycobacterium tuberculosis H37Rv
[20] = molecular target: T5, Estrogen receptor (Homo sapiens, UniProt P03372);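 further: potency for inhibiting coactivator peptide recruitment to the receptor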
T5 sequence (P03372 whole entry): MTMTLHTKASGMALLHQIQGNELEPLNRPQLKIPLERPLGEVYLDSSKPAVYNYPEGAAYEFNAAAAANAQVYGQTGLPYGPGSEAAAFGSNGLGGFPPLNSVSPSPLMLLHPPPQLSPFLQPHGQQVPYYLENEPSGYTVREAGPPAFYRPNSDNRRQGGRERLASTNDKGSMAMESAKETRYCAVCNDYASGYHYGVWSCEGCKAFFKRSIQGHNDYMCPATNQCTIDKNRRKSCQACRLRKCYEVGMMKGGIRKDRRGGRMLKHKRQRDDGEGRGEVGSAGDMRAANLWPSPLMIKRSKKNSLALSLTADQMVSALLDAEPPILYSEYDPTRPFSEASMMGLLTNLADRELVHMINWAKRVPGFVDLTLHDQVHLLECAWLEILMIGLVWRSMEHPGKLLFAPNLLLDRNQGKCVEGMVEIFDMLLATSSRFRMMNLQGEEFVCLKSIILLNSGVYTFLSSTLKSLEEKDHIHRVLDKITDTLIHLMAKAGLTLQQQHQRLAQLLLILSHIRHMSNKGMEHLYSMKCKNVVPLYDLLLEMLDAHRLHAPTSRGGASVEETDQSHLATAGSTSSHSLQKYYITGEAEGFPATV

[21] = alpha-synuclein stem-loop luciferase translation blockers – H4 neuroglioma cells, luminescence, confirmation (AID 1988); format: functional, cell-based
[22] = molecular target: T6, Mannose-6-phosphate isomerase (Homo sapiens, UniProt P34949); test: MPI inhibition at elevated mannose 6-phosphate – biochemical, fluorescence intensity, high mannose 6-phosphate, primary screen (AID 1220)
T6 sequence (P34949 whole entry): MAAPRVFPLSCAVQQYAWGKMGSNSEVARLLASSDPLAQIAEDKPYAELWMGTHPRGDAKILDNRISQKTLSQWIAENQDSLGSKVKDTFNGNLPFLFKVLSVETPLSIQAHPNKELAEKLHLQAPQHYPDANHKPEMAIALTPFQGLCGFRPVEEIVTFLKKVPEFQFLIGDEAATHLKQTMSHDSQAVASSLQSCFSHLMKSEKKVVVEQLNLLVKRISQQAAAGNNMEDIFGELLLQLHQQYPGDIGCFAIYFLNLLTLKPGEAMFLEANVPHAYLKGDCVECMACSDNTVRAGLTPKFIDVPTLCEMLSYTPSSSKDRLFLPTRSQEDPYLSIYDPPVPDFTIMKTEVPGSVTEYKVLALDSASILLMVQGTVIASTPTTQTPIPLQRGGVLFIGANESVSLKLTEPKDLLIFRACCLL

[23] = luciferase reporter signal suppression in cells – H4 neuroglioma cells, luminescence, dose response (AID 1990); format: functional, cell-based
[24] = molecular target: T6, Mannose-6-phosphate isomerase; test: MPI enzyme activity inhibition – biochemical, fluorescence intensity, coupled assay, primary screen (AID 1209)
[25] = Luminescence Cell-Based Dose Response HTS to Identify Inhibitors of 5'UTR Stem-Loop Driven Prion Protein mRNA Translation in H4 Neuroglioblastoma Cells. [Related pubchem assays: 1827 (Project Summary), 1813 (Primary HTS)]; format: functional

Chain of Mucolipin-3 (Q8TDD5 whole entry): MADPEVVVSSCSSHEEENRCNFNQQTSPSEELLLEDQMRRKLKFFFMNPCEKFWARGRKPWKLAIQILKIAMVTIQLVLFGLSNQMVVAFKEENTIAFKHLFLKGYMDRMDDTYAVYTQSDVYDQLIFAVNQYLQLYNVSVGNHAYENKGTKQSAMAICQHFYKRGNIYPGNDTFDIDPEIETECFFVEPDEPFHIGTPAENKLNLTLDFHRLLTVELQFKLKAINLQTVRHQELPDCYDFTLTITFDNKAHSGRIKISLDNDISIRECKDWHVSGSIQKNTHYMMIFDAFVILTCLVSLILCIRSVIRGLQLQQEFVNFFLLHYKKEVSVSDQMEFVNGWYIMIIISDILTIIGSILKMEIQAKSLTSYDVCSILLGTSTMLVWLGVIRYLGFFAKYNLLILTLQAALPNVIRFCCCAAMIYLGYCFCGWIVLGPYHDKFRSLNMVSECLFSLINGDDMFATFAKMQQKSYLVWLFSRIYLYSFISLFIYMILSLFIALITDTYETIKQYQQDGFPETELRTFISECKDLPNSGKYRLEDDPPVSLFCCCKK
Chain of Lytic switch protein BZLF1 (P03206 whole entry): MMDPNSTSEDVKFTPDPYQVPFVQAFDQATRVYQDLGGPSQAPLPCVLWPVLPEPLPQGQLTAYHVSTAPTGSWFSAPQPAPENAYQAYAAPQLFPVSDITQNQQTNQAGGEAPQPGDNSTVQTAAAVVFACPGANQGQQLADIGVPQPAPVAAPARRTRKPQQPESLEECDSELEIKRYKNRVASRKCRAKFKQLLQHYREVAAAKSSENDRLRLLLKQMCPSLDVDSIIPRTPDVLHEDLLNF
Chain of Epstein-Barr nuclear antigen 1 (P03211 whole entry): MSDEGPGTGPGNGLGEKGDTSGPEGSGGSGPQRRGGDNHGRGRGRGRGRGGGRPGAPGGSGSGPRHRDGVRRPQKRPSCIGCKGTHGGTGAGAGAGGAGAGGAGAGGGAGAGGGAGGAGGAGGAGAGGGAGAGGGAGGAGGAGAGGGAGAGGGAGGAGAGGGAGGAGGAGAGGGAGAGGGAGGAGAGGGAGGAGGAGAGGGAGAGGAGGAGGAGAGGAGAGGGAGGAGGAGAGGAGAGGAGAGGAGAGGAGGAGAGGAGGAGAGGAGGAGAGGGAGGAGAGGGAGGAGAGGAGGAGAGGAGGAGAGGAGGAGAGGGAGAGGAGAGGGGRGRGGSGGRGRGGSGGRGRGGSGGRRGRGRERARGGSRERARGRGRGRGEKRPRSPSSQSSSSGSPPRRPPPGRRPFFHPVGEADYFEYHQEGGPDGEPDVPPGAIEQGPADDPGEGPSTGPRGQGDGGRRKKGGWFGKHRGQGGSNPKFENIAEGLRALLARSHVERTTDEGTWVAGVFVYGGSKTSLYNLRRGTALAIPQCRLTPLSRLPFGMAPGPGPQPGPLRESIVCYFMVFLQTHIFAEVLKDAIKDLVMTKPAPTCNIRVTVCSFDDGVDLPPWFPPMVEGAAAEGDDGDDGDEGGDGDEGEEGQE
Chain of Ion channel NompC (Q7T1G6 whole entry): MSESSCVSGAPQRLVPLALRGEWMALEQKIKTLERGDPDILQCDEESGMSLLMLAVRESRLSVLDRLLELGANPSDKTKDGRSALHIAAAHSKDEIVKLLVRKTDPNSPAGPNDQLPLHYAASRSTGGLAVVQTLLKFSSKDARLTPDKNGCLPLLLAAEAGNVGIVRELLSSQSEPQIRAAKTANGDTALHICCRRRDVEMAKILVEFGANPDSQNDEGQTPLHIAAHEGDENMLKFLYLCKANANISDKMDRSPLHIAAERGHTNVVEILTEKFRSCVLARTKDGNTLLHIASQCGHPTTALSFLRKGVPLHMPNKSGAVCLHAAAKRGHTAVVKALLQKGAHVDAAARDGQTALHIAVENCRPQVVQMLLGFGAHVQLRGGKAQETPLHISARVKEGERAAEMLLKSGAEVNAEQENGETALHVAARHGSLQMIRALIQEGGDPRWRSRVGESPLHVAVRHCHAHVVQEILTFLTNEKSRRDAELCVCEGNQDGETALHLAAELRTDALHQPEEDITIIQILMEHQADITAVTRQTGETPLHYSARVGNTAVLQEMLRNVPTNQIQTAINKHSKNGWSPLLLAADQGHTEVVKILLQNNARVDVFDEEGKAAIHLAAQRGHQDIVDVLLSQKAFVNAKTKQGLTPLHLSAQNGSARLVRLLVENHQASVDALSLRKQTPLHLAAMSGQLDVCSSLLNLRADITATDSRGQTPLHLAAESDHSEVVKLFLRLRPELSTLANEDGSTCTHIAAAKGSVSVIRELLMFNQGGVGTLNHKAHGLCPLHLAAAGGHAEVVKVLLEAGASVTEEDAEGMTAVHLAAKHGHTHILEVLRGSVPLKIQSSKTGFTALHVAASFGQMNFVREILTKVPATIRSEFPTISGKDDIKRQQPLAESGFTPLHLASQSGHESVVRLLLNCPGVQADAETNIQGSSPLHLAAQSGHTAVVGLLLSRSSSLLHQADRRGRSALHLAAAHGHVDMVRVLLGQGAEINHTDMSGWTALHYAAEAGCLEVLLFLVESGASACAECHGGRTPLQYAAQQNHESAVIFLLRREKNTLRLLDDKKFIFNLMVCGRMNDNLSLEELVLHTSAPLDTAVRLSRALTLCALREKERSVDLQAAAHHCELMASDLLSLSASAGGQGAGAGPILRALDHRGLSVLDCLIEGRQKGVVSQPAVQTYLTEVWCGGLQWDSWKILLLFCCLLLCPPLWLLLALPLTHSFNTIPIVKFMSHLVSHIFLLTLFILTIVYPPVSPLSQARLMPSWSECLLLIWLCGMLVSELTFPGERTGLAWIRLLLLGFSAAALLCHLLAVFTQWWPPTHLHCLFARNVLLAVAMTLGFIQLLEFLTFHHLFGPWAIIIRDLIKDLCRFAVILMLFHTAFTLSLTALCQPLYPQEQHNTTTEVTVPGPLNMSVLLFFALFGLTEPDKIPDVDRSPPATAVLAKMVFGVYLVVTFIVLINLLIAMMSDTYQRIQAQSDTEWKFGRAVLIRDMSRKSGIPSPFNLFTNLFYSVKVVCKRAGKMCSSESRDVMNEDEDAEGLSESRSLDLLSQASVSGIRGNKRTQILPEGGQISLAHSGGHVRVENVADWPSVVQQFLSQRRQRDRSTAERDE
Chain of Long-chain-fatty-acid--AMP ligase FadD28 (P9WQ59 whole entry): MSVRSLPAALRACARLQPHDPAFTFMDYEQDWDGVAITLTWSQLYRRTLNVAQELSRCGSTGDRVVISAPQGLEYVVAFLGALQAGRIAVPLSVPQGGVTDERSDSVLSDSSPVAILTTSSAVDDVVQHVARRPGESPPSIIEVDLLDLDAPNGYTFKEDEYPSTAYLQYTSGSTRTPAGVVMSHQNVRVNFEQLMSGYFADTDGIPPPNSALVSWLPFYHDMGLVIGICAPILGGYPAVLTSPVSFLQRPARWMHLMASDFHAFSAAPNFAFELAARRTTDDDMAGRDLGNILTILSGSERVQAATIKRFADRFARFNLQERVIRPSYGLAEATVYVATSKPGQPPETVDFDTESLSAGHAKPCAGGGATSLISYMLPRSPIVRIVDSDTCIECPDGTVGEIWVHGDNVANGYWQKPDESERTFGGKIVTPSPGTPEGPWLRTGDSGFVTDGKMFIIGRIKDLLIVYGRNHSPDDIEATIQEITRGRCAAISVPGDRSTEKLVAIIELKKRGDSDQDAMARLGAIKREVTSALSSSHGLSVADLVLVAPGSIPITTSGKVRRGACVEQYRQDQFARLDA

Compound: OCCN1CCN(CCCN2c3ccccc3Sc3ccc(C(F)(F)F)cc32)CC1
- EC50 [1]: 9.66 µM (active)
- EC50 [2]: 8.41 µM (active)
- AC50 [3]: 4.16 µM (active)
- IC50 [4]: 17.3 µM (active)
- IC50 [5]: 17.5 µM (active)
- AC50 [6]: 12.7 µM (active)
- IC50 [7]: > 20 µM (inactive)
- EC50 [8]: 8.4 µM (active)
- EC50 [9]: 13.2 µM (active)

Compound: COC(=O)CN(c1cc(Cl)ccc1OC)S(=O)(=O)c1ccc(C)cc1
- EC50 [10]: 3.49 µM (active)
- EC50 [11]: > 29.9 µM (not active)

Compound: CCOC(=O)c1sc(NC(=O)CN2CCCC2)c(C(=O)OCC)c1C
- CC50 [12]: > 40 µM (active)

Compound: Cc1cc(S(=O)(=O)N2CCCCCC2)c(Cl)cc1Cl
- EC50 [10]: > 29.9 µM (not active)
- EC50 [11]: > 29.9 µM (not active)

Compound: O=C(Oc1ccc(-c2nnco2)cc1)c1sc2ccccc2c1Cl
- IC50 [13]: > 17 µM (not active)

Compound: CN(C)CCCN(C(=O)c1ccco1)c1nc2cc3c(cc2s1)OCO3
- EC50 [14]: < 0.1 µM (active)
- AC50 [6]: 25.2 µM (active)
- EC50 [15]: > 60 µM (not active)
- EC50 [16]: 0.213 µM (active)

Compound: Cc1cc2nc3n(c2cc1C)CCCN3
- EC50 [14]: < 0.1 µM (active)
- EC50 [15]: > 60 µM (not active)
- EC50 [16]: 0.121 µM (active)

Compound: Cc1cc(C)cc(NC(=O)c2cc(Cl)sc2Cl)c1
- CC50 [12]: > 20 µM (active)

Compound: O=C(Cn1cnc2ccccc2c1=O)Nc1nc2ccccc2s1
- IC50 [17]: > 111 µM (not active)
- IC50 [18]: 51.4 µM (not active)

Compound: CCCCCCCCNC(C)C(O)c1ccc(SC(C)C)cc1 (stereo not given)
- EC50 [1]: > 20 µM (not active)
- EC50 [2]: 11.3 µM (active)
- AC50 [19]: 64.1 µM (active)
- EC50 [8]: 15.2 µM (active)
- EC50 [9]: > 20 µM (not active)

Compound: COc1ccc(-n2c(SCC(=O)Nc3nccs3)nc3sc4c(c3c2=O)CCN(C)C4)cc1
- IC50 [20]: 8.48 µM (active)

Compound: S=C(CCC(=S)Nc1ccc(Cl)cc1)Nc1ccc(Cl)cc1
- IC50 [13]: > 17 µM (not active)

Compound: Cc1ccccc1NCc1ccc(O)c2ncccc12
- EC50 [21]: 10.4 µM (active)
- IC50 [22]: 11.5 µM (active)
- EC50 [23]: 11.2 µM (active)
- IC50 [24]: 12.5 µM (active)
- EC50 [25]: > 120 µM (not active)

Compound: COc1ccc(NC(S)=NN=C(S)Nc2cccc(C(F)(F)F)c2)cc1
- IC50 [17]: > 111 µM (not active)
- IC50 [18]: 6.7 µM (active)

Compound: O=Cc1cn(-c2ccccc2)nc1-c1cc2c(ccc3ccccc32)oc1=O
- IC50 [20]: 19.6 µM (active)
